# According to patent US20050267204A1, “Synergistic gold-containing compositions” (MEDICAL INNOVATIONS LIMITED, priority 1996, published 2005):
# Where two headings read alike, the source gives them in different places.
# Tests used:
# [1] = test system: TPA-induced inflammatory cell infiltration into the dermis; assay: Inhibition of TPA-induced inflammatory cell infiltration into the dermis of mice; type: in vivo, BALB/c mice; conditions: for Synergistic factor: IC50 without auranofin divided by IC50 with auranofin (0.2%); for Relative potency: hydrocortisone acetate = 1.0; for Potency for inhibition of TPA-induced inflammatory cell infiltration (in words): ranking in text; for Emax: read-out: Emax (% inhibition)
# Procedure: (§1) The mice were housed in stainless steel cages, 6 mice per cage under normal laboratory conditions (room temperature at about 22° C.) at least 7 days before the experiments for acclimatization. Food and water were allowed ad libitum throughout the experiment period. The backs of the mice were shaved with an electric clipper two days before each treatment and only those mice showing no hair regrowth were used (i.e., the mice in the resting phase of the hair growth cycle were selected). During treatment, the mice were held with their tails and put on top of the cage so that they grasped the cage and rested there. The solutions were applied to an area approximately 2 cm×2 cm on the shaved back of the mice by using a “Pipetman” to apply the solution. If auranofin ointment or ointment base was applied, the amount was standardized by using a microspatula which was crimped at one end, the ointment was then put into the ridge and the excess removed by means of another microspatula and applied sparingly twice a day. After a fixed time, the mice were killed routinely by cervical dislocation between 9 a.m. and 11 a.m. to avoid variations due to circadian rhythms, and an area (1 cm×1 cm) was excised from the centre of the treated area by scalpel and scissors. The rest of the tissues were disposed by combustion. The tissues were then fixed, embedded, sectioned and stained.
# Infiltration of inflammatory cells was determined by the same image analysis system using the section taken from the block of mouse skin embedded in paraffin wax or Spurr's resin and stained with haematoxylin and eosin or toluidine blue respectively. For each section, 10 fields, unless otherwise stated, were chosen randomly and the cell density per mm^2 of field determined. The average value for the 10 fields was obtained and entered as one value for each mouse. The mean and SEM for the six mice in each treatment group were calculated.
# The measurement of the inflammatory cell infiltration included the background values which included other materials in the dermis stained in the same way.
# (§2) The percent inhibition of drug on TPA-induced skin responses (i.e., epidermal hyperplasia, inflammatory cell infiltration and skin-fold thickness) was calculated by using the following formula: [formula]
# (§3) This provides estimates of (a) the potency, (b) the efficacy or maximum effect (Emax) and the slope of the log concentration-response curve by using Hill coefficient (γ). The Hill Equation may be expressed as follows: [formula] where IC50 is the drug concentration producing 50% of the maximal response and Emax refers to the maximal effect produced by the drug and is also termed efficacy. Efficacy is the measurement of the intrinsic ability of a drug to initiate a response once it occupies receptor sites. […] The Hill coefficient (γ) measures the slope of the dose-effect curve which can be markedly influenced by the shape of the curve that describes the binding of the drug to the receptor. For many drugs, y lies between 0.6 and 1.5. […] On the other hand, when γ is less than 1, with a shallow hyperbolic concentration effect relationship, the activity occurs over a wide range of drug levels.
# (§4) In the present study, concentration-response curves were obtained for a series of corticosteroids. In these experiments, curve fitting was accomplished using a computer programme called “The Scientist” (MicroMath Scientific Software, Salt Lake City, Utah, USA.) in which the parameters, Emax, IC50 and Hill coefficient (γ) for each steroids were estimated by using non-linear regression and least square fits.
# Mice were divided into treatment groups. TPA and corticosteroids were premixed to the concentrations required and applied to the backs of mice immediately.
# [2] = test system: TPA-induced epidermal hyperplasia; assay: Inhibition of TPA-induced epidermal hyperplasia (epidermal thickness) on back skin of mice; type: in vivo, BALB/c mice; conditions: for Synergistic factor: IC50 without auranofin divided by IC50 with auranofin (0.2%); for Synergism with auranofin, epidermal hyperplasia (in words): auranofin (0.2%) co-administered; for Relative potency: hydrocortisone acetate = 1.0; for Potency for inhibition of TPA-induced epidermal hyperplasia (in words): ranking in text; for Emax: read-out: Emax (% inhibition)
# Procedure: as §1
# Epidermal thickness was determined by image analysis. This image analysis system was a minicomputer (Tracor Northern TN8500) attached to a light microscope (Zeiss Axioplan) and a camcorder (Sony DXC-3000P). Sections were taken from each tissue block and 20 measurements were taken at fixed intervals from each section. The average value for the 20 measurements was obtained and entered as one value for each mouse. The mean and SEM for the six mice in each treatment group were calculated.
# as §2, §3, §4
# Mice were divided into treatment groups. TPA and corticosteroids were premixed to the concentrations required and applied to the backs of mice immediately. For those steroids not very soluble in acetone (i.e., betamethasone, dexamethasone, hydrocortisone and hydrocortisone acetate), the drugs were dissolved in 100 μL dimethylformamide before further dilution with acetone. The efficacy of corticosteroids in inhibiting epidermal hyperplasia, inflammatory cell infiltration and skin-fold thickness was assessed as described previously. Concentration-response curves were determined after computer-fitting of data.
# [3] = Hill equation fit, means ± SD, steroid premixed with TPA, topical
# [4] = Hill equation fit, means ± SD, steroid premixed with TPA, topical, read-out: IC50 (M × 10^−4)
# [5] = from Hill equation, concentration that produced 50% of Emax, read-out: IC50 for inhibition of inflammatory cell infiltration in the dermis (M × 10^−4)
# [6] = read from concentration-response curve, concentration that inhibited 50% of the TPA effect, read-out: IC50 for inhibition of inflammatory cell infiltration in the dermis (M × 10^−4)
# [7] = with auranofin (0.2%), from computer fitted graph, means ± SD, read-out: Apparent IC50 (M × 10^−4) with auranofin
# [8] = without auranofin, from computer fitted graph, means ± SD, read-out: Apparent IC50 (M × 10^−4) without auranofin
# [9] = from Hill equation, concentration that produced 50% of Emax, read-out: IC50 for inhibition of epidermal thickening (M × 10^−4)
# [10] = read from concentration-response curve, concentration that inhibited 50% of the TPA effect, read-out: IC50 for inhibition of epidermal thickening (M × 10^−4)
# [11] = Mus musculus, from Hill equation, concentration that produced 50% of Emax, read-out: IC50 for inhibition of inflammatory cell infiltration in the dermis (M × 10^−4)
# [12] = Mus musculus, read from concentration-response curve, concentration that inhibited 50% of the TPA effect, read-out: IC50 for inhibition of inflammatory cell infiltration in the dermis (M × 10^−4)
# [13] = Mus musculus, topical, Hill equation fit, means ± SD, steroid premixed with TPA, topical, read-out: IC50 (M × 10^−4)
# [14] = Mus musculus, with auranofin (0.2%), from computer fitted graph, means ± SD, read-out: Apparent IC50 (M × 10^−4) with auranofin
# [15] = Mus musculus, without auranofin, from computer fitted graph, means ± SD, read-out: Apparent IC50 (M × 10^−4) without auranofin
# [16] = Mus musculus, Hill equation fit, means ± SD, steroid premixed with TPA, topical
# [17] = Mus musculus, from Hill equation, concentration that produced 50% of Emax, read-out: IC50 for inhibition of epidermal thickening (M × 10^−4)
# [18] = Mus musculus, read from concentration-response curve, concentration that inhibited 50% of the TPA effect, read-out: IC50 for inhibition of epidermal thickening (M × 10^−4)
SMILES,"Emax (% inhibition) [1, 3]","IC50 [1, 4] [µM]",Synergistic factor [1],"IC50 [1, 5] [µM]",Relative potency ([1]; from Hill-equation IC50),Relative potency ([1]; from IC50 read from curve),Potency for inhibition of TPA-induced inflammatory cell infiltration (in words) [1],"IC50 [1, 6] [µM]","Emax (% inhibition) [2, 3] [% inhibition]",Relative potency ([2]; from Hill-equation IC50),Relative potency ([2]; from IC50 read from curve),Potency for inhibition of TPA-induced epidermal hyperplasia (in words) [2],"IC50 [1, 11] [µM]","IC50 [1, 12] [µM]","IC50 [1, 13] [µM]","Emax [1, 16] [%]","IC50 [2, 17] [µM]","IC50 [2, 18] [µM]","IC50 [2, 13] [µM]","Emax [2, 16] [%]",other results
"C[C@@H]1C[C@H]2[C@@H]3CCC4=CC(=O)C=C[C@]4(C)[C@@]3(Cl)[C@@H](O)C[C@]2(C)[C@@]1(OC(=O)c1ccco1)C(=O)CCl [Mometasone furoate, mometasone furoate]",89.98 ± 4.88^ % inhibition,20 ± 5,37.50,20,386.65,366.67,strong to very strong anti-inflammatory effect,30,83.31 ± 3.04,159.43,175.0,strong to very strong potencies,–,–,–,–,–,–,–,–,"Synergism with auranofin, inflammatory cell infiltration (in words) ([1]; auranofin (0.2%), FIG. 2): massive synergism; Concentration that, in the absence of auranofin, produced an equal effect to the combination ([1]; equal to 5×10^−4 M with auranofin (0.2%), FIG. 2): 1 mM; Increase in apparent IC50 ([1]; in presence of auranofin (0.2%), Table 10): about 3,800%; IC50 [1, 7]: 0.8 ± 0.1 µM; IC50 [1, 8]: 30 ± 5 µM; IC50 [2, 4]: 23 ± 4 µM; Synergistic factor [2]: 1.29; Synergism with auranofin, epidermal hyperplasia (in words) [2]: no synergism or even additive effect; IC50 [2, 9]: 23 µM; IC50 [2, 10]: 40 µM; IC50 [2, 7]: 31 ± 5 µM; IC50 [2, 8]: 40 ± 4 µM"
"CC1(C)O[C@@H]2C[C@H]3[C@@H]4C[C@H](F)C5=CC(=O)C=C[C@]5(C)[C@@]4(F)[C@@H](O)C[C@]3(C)[C@]2(C(=O)CO)O1 [Fluocinolone acetonide, fluocinolone acetonide]",–,–,2.27,–,–,440,most potent agent,–,–,94.03,333.33,strong to very strong potencies,16,25,16 ± 2,79.6 ± 2.41,39,21,39 ± 14,89.6 ± 6.93,"IC50 [1, 14]: 11 ± 1.3 µM; IC50 [1, 15]: 25 ± 0.2 µM; Potency for inhibition of TPA-induced inflammatory cell infiltration (in words) ([1]; listed as fluocinolone acetonide): strong to very strong anti-inflammatory effect; Synergistic factor [2]: 13.13; IC50 [2, 14]: 1.6 ± 0.2 µM; IC50 [2, 15]: 21 ± 14 µM; Synergism with auranofin, epidermal hyperplasia (in words) [2]: massive synergism; Percent increase in the apparent potency of the steroid ([2]; in presence of auranofin (0.2%)): 1,300%"
"CC[PH](CC)(CC)[Au][S][C@@H]1O[C@H](COC(C)=O)[C@@H](OC(C)=O)[C@H](OC(C)=O)[C@H]1OC(C)=O [Auranofin, (1-thio-p-D-glucopyranose 2,3,4,6-tetraacetato-S)-(triethylphosphine)-Au(I)]",–,–,–,–,–,–,–,–,–,–,–,–,–,–,–,–,–,–,–,–,"Inhibition of TPA-induced epidermal hyperplasia ([2]; auranofin (0.2%) alone, FIG. 1): about 10%"
C[C@@H]1C[C@H]2[C@@H]3C[C@H](F)C4=CC(=O)C=C[C@]4(C)[C@H]3[C@@H](O)C[C@]2(C)[C@H]1C(=O)COC(=O)C(C)(C)C [Fluocortolone 21-pivalate],97.91 ± 12.16 % inhibition,110 ± 40,–,110,70.30,100.0,medium to strong potencies,110,85.18 ± 9.51,91.68,116.67,medium to strong potencies,–,–,–,–,–,–,–,–,"IC50 [2, 4]: 40 ± 15 µM; IC50 [2, 9]: 40 µM; IC50 [2, 10]: 60 µM"
"CC(=O)OCC(=O)[C@@]1(O)CC[C@H]2[C@@H]3CCC4=CC(=O)CC[C@]4(C)[C@H]3[C@@H](O)C[C@@]21C [Hydrocortisone acetate, hydrocortisone acetate]",–,–,–,–,1.0,1.0,low to medium potencies,–,–,1.0,1.0,low to medium potencies,7730,11000,7730 ± 1380,79.4,3670,7000,3670 ± 1200,79.6 ± 7.62,–
"C[C@H]1C[C@H]2[C@@H]3CCC4=CC(=O)C=C[C@]4(C)[C@@]3(F)[C@@H](O)C[C@]2(C)[C@@]1(O)C(=O)CO [Betamethasone, betamethasone]",–,–,–,–,5.89,5.23,–,–,–,1.35,1.40,–,1310,2100,1310 ± 165,74.5 ± 3.29,2720,5000,1380,94.2 ± 7.33,–
